From PMC4741607 (Oncotarget, 2015)
Like-named read-outs stand apart in the source and are kept apart here. Each block holds one compound with its values, some of them ahead of it.

What was measured:
H1975 (EGFR L858R/T790M) = assay: Proliferation (CellTiter-Glo), H1975; assay type: cell-based, human; conditions: H1975, EGFR L858R/T790M, 72 hours, read-out: GI50
Description: (§2) The human cancer cell lines A549, A431, H3255, H1975, PC-9, HCC827, H23, H460, A549, H358 and H2122 cells were purchased from the American Type Culture Collection (ATCC) (Manassas, VA, USA). […] A549 and A431 were cultured in DMEM media (Corning, USA) with 10% FBS and supplemented with 2% L-glutamine and 1% pen/strep. H3255 was cultured in BEGM media (LONZA, USA) with 10% FBS and supplemented with 2% L-glutamine and 1% pen/strep.
(§3) Cells were grown in 96-well culture plates (2500–3000/well). For adherent cell lines, compounds of various concentrations were added into the plates after cells were cultured for 12 hours. Cell proliferation was determined after treatment with compounds for 72 hours. Cell viability was measured using the CellTiter–Glo assay (Promega, USA), according to the manufacturer's instructions, and luminescence was measured in a multi-label reader (Envision, PerkinElmer, USA). Data were normalized to control groups (DMSO) and represented by the mean of three independent measurements with standard error <20%. GI50 values were calculated using Prism 5.0 (GraphPad Software, San Diego, CA).

H23 (EGFR wt) = assay: Proliferation (CellTiter-Glo), H23; assay type: cell-based, human; conditions: H23, EGFR wt, 72 hours, read-out: GI50
Description: as §2, §3

H460 (EGFR wt) = assay: Proliferation (CellTiter-Glo), H460; assay type: cell-based, human; conditions: H460, EGFR wt, 72 hours, read-out: GI50
Description: as §2, §3

PC-9 (EGFR Del19) = assay: Proliferation (CellTiter-Glo), PC-9; assay type: cell-based, human; conditions: PC-9, EGFR Del19, 72 hours, read-out: GI50
Description: as §2, §3

A431 (EGFR wt) = assay: Proliferation (CellTiter-Glo), A431; assay type: cell-based, human; conditions: A431, EGFR wt, 72 hours, read-out: GI50
Description: as §2, §3

HCC827 (EGFR Del19) = assay: Proliferation (CellTiter-Glo), HCC827; assay type: cell-based, human; conditions: HCC827, EGFR Del19, 72 hours, read-out: GI50
Description: as §2, §3

H3255 (EGFR L858R) = assay: Proliferation (CellTiter-Glo), H3255; assay type: cell-based, human; conditions: H3255, EGFR L858R, 72 hours, read-out: GI50
Description: as §2, §3

A549 (EGFR wt) = assay: Proliferation (CellTiter-Glo), A549; assay type: cell-based, human; conditions: A549, EGFR wt, 72 hours, read-out: GI50
Description: as §2, §3

H358 (EGFR wt) = assay: Proliferation (CellTiter-Glo), H358; assay type: cell-based, human; conditions: H358, EGFR wt, 72 hours, read-out: GI50
Description: as §2, §3

H2122 (EGFR wt) = assay: Proliferation (CellTiter-Glo), H2122; assay type: cell-based, human; conditions: H2122, EGFR wt, 72 hours, read-out: GI50
Description: as §2, §3

H1975 cells [1] = conditions: DMSO = 100
Description: as §3

H1975 cells [2] = assay: cells; conditions: Homo sapiens, NCI-H1975, read-out: Relative activity (%)
Description: as §3

PC-9 cells = assay: Cell cycle analysis (FACS), PC-9; assay type: cell-based, human; conditions: PC-9, 24h
Description: (§4) The cells were fixed in 70% cold ethanol and incubated at −20°C overnight then stained with PI/RNase staining buffer (BD Pharmingen). Flow cytometry was performed using a FACS Calibur (BD), and results were analyzed by ModFit software.

HCC827 cells = assay: Cell cycle analysis (FACS), HCC827; assay type: cell-based, human; conditions: HCC827, 24 h
Description: as §4

H3255 EGFR L858R = assay: Colony formation assay, H3255; assay type: cell-based, human; conditions: H3255, 10 days, read-out: EC50 colony formation
Description: (§5) The clonogenic activity of the cells was determined by colony forming assays. Every six conditions of drugs were analyzed (10 μM, 1 μM, 0.1 μM, 0.01 μM, 0.001 μM, DMSO). The cells (H1975, PC-9, HCC827, H3255) were seeded at 600 cells/well in 2 ml medium in 6-well plates. Cells were maintained in a humidified 5% CO2 incubator at 37°C for 10 days without changing medium. […] The total number of colonies exceeding 50 cells per colony was counted and data were given as percentage with respect to the controls.

HCC827 EGFR Del 19 = assay: Colony formation assay, HCC827; assay type: cell-based, human; conditions: HCC827, 10 days, read-out: EC50 colony formation
Description: as §5

H1975 EGFR (L858R/T790M) = assay: Colony formation assay, H1975; assay type: cell-based, human; conditions: H1975, 10 days, read-out: EC50 colony formation
Description: as §5

PC-9 xenograft = PC-9 xenograft mouse model; assay type: in vivo, Nude (Nu/Nu) mice
Description: (§1) Tumor diameter was measured 3 times weekly. Tumor volumes (V) were calculated by the equation (V = length × width × width/2). ALL experiments and procedures followed the guidelines of the Institutional Animal Care and Use Committees of National Institue of Biological Sciences, Beijing.

H460 cells = assay: Cell cycle analysis (FACS), H460; assay type: cell-based, human; conditions: H460, 48h
Description: as §4

H3255 cells = assay: Cell cycle analysis (FACS), H3255; assay type: cell-based, human; conditions: H3255, 24h
Description: as §4

H1975 cells [3] = assay: Cell cycle analysis (FACS), H1975; assay type: cell-based, human
Description: as §4

H1975 xenograft = H1975 xenograft mouse model; assay type: in vivo, Nude (Nu/Nu) mice
Description: as §1

PC-9 EGFR del 19 = assay: Colony formation assay, PC-9; assay type: cell-based, human; conditions: PC-9, 10 days, read-out: EC50 colony formation
Description: as §5

[4] = test system: EGFR Y1068 in PC-9, HCC827, and H3255; assay: EGFR Y1068 auto-phosphorylation in EGFR primary mutant cell lines; assay type: cell-based, human; conditions: range over PC-9, HCC827, and H3255
Description: Antibodies were used at 1:1000.
(§6) Cells were then washed with PBS and lysed in cell lysis buffer.

[5] = test system: Akt Thr308 and Ser473 phosphorylation in H1975; assay: Signaling pathway immunoblotting, H1975; assay type: cell-based, human; conditions: H1975, 4 hours
Description: Antibodies were used at 1:1000.
as §6

PI3K kinase = assay: PI3K kinases ADP-Glo assay; assay type: biochemical; conditions: Fig. S8

Compound: CCC(=O)N1CCC[C@@H](n2nc(-c3ccc(Oc4ccccc4)cc3)c3c(N)ncnc32)C1 [PCI-R]
GI50 (H1975 (EGFR L858R/T790M)): > 10000 nM
GI50 (H23 (EGFR wt)): > 10000 nM
GI50 (H460 (EGFR wt)): > 10000 nM
GI50 (PC-9 (EGFR Del19)): > 10000 nM
GI50 (A431 (EGFR wt)): > 10000 nM
GI50 (HCC827 (EGFR Del19)): > 10000 nM
GI50 (H3255 (EGFR L858R)): > 10000 nM
GI50 (A549 (EGFR wt)): > 10000 nM
GI50 (H358 (EGFR wt)): > 10000 nM
GI50 (H2122 (EGFR wt)): > 10000 nM

GI50 (H1975 (EGFR L858R/T790M); Homo sapiens, NCI-H1975): ~1100 nM
Compound: CC(=O)Nc1cccc(-n2c(=O)n(C3CC3)c(=O)c3c(Nc4ccc(I)cc4F)n(C)c(=O)c(C)c32)c1 [Trametinib]
H1975 cell lines growth (H1975 cells [1]; single agent 0.014 μM): 77.33
H1975 cell lines growth (H1975 cells [1]; single agent 0.04 μM): 79.50
H1975 cell lines growth (H1975 cells [1]; single agent 0.37 μM): 80.79
H1975 cell lines growth (H1975 cells [1]; single agent 1.1 μM): 77.20
H1975 cell lines growth (H1975 cells [1]; single agent 10 μM): 20.59
activity at 1.1 µM (H1975 cells [2]): 52.2%

EC50 (H3255 EGFR L858R): 89 nM
EC50 (H3255 EGFR L858R; Homo sapiens, NCI-H3255, 240 h): 89.1 nM
EC50 (HCC827 EGFR Del 19): 10 nM
EC50 (HCC827 EGFR Del 19; Homo sapiens, HCC827, 240 h): 9.65 nM
EC50 (H1975 EGFR (L858R/T790M)): 12 nM
EC50 (H1975 EGFR (L858R/T790M); Homo sapiens, NCI-H1975, 240 h): 12.2 nM
GI50 (H1975 (EGFR L858R/T790M); Homo sapiens, NCI-H1975): 300 to 1000 nM
GI50 (H460 (EGFR wt); Homo sapiens, NCI-H460): 4800 nM
GI50 (PC-9 (EGFR Del19); Homo sapiens): 44 nM
GI50 (A431 (EGFR wt); Homo sapiens, A-431): 1000 nM
GI50 (HCC827 (EGFR Del19); Homo sapiens): 19 nM
GI50 (H3255 (EGFR L858R); Homo sapiens, NCI-H3255): 120 nM
GI50 (A549 (EGFR wt); Homo sapiens): > 10000 nM
GI50 (H358 (EGFR wt); Homo sapiens, NCI-H358): > 10000 nM
GI50 (H2122 (EGFR wt); Homo sapiens, NCI-H2122): 4500 nM
EC50 (PC-9 EGFR del 19; Homo sapiens, 240 h): 11.1 nM
EC50 (PC-9 EGFR del 19): 11 nM
Compound: C=CC(=O)Nc1cccc(Oc2nc(Nc3ccc(N4CCN(C)CC4)cc3OC)ncc2Cl)c1 [WZ-4002, WZ4002]
%G0-G1 (PC-9 cells; 0.3 μM): 87.95%
%G2-M (PC-9 cells; 0.3 μM): 6.24%
%G0-G1 (HCC827 cells; 0.3 μM): 79.74%
%G2-M (HCC827 cells; 0.3 μM): 5.62%
GI50 (H23 (EGFR wt); Homo sapiens): > 10000 nM
anti-tumor activity (tumor growth) (PC-9 xenograft; PC-9 xenograft, 25 mg/kg/day QD oral gavage): almost completely suppressed the tumor growth
%G0-G1 (H460 cells; 0.3 μM): 71.39%
%G2-M (H460 cells; 0.3 μM): 5.15%
%G0-G1 (H3255 cells; 0.3 μM): 81.96%
%G2-M (H3255 cells; 0.3 μM): 9.90%
%G0-G1 (H1975 cells [3]; H1975, 12h, 0.3 μM): 70.4%
%G2-M (H1975 cells [3]; H1975, 12h, 0.3 μM): 10.17%
%G0-G1 (H1975 cells [3]; H1975, 24h, 0.3 μM): 80.35%
%G2-M (H1975 cells [3]; H1975, 24h, 0.3 μM): 7.63%
%G0-G1 (H1975 cells [3]; H1975, 48h, 0.3 μM): 94.64%
%G2-M (H1975 cells [3]; H1975, 48h, 0.3 μM): 0.95%
anti-tumor activity (tumor growth) (H1975 xenograft; 25 mg/kg/day QD oral gavage): almost completely suppressed the tumor growth

Compound: C=CC(=O)N1CCC[C@@H](n2nc(-c3ccc(Oc4ccccc4)cc3)c3c(N)ncnc32)C1 [ibrutinib, Ibrutinib]
%G0-G1 (PC-9 cells; 0.3 μM): 81.91%
%G2-M (PC-9 cells; 0.3 μM): 10.77%
%G0-G1 (PC-9 cells; 3 μM): 84.9%
%G2-M (PC-9 cells; 3 μM): 8.54%
%G0-G1 (HCC827 cells; 0.3 μM): 78.26%
%G2-M (HCC827 cells; 0.3 μM): 6.86%
%G0-G1 (HCC827 cells; 3 μM): 80.37%
%G2-M (HCC827 cells; 3 μM): 5.91%
EC50 [4]: 23 to 58 nM
phosphorylation of Akt Thr308 and Ser473 [5]: significantly affected the phosphorylation of Akt Thr308 and Ser473
GI50 (H1975 (EGFR L858R/T790M); Homo sapiens, NCI-H1975): 1200 nM
GI50 (H23 (EGFR wt); Homo sapiens): > 10000 nM
anti-tumor activity (tumor progression) (PC-9 xenograft; PC-9 xenograft, 25, 50, 100 mg/Kg BID oral gavage, 22 days): tumor progression slow down efficacy
GI50 (H460 (EGFR wt); Homo sapiens, NCI-H460): > 10000 nM
GI50 (PC-9 (EGFR Del19); Homo sapiens): 50 nM
H1975 cell lines growth (H1975 cells [1]; single agent 0.37 μM): 43.77
H1975 cell lines growth (H1975 cells [1]; single agent 1.1 μM): 34.56
GI50 (A431 (EGFR wt); Homo sapiens, A-431): > 10000 nM
%G0-G1 (H460 cells; 0.3 μM): 69.88%
%G2-M (H460 cells; 0.3 μM): 5.02%
%G0-G1 (H460 cells; 3 μM): 70.49%
%G2-M (H460 cells; 3 μM): 5.09%
%G0-G1 (H3255 cells; 0.3 μM): 82.82%
%G2-M (H3255 cells; 0.3 μM): 9.73%
%G0-G1 (H3255 cells; 3 μM): 89.05%
%G2-M (H3255 cells; 3 μM): 5.24%
GI50 (HCC827 (EGFR Del19); Homo sapiens): 63 nM
GI50 (H3255 (EGFR L858R); Homo sapiens, NCI-H3255): 110 nM
enzymatic activity against PI3K kinase (PI3K kinase): did not have apparent enzymatic activity
activity at 1.1 µM (H1975 cells [2]): 52.3%
%G0-G1 (H1975 cells [3]; H1975, 12h, 0.3 μM): 69.44%
%G2-M (H1975 cells [3]; H1975, 12h, 0.3 μM): 10.92%
%G0-G1 (H1975 cells [3]; H1975, 12h, 3 μM): 74.28%
%G0-G1 (H1975 cells [3]; H1975, 24h, 0.3 μM): 81.96%
%G2-M (H1975 cells [3]; H1975, 24h, 0.3 μM): 6.76%
%G0-G1 (H1975 cells [3]; H1975, 24h, 3 μM): 86.20%
%G2-M (H1975 cells [3]; H1975, 24h, 3 μM): 4.83%
%G0-G1 (H1975 cells [3]; H1975, 48h, 0.3 μM): 92.06%
%G2-M (H1975 cells [3]; H1975, 48h, 0.3 μM): 2.43%
%G0-G1 (H1975 cells [3]; H1975, 48h, 3 μM): 93.79%
%G2-M (H1975 cells [3]; H1975, 48h, 3 μM): 1.31%
anti-tumor activity (tumor progression) (H1975 xenograft; 50 mg/kg BID oral gavage, 23-day): slowed down tumor progression
anti-tumor activity, higher dosage versus 50 mg/kg BID (H1975 xenograft; 100 mg/Kg BID): did not improve efficacy
GI50 (A549 (EGFR wt); Homo sapiens): > 10000 nM
GI50 (H358 (EGFR wt); Homo sapiens, NCI-H358): > 10000 nM
GI50 (H2122 (EGFR wt); Homo sapiens, NCI-H2122): > 10000 nM
